{"source": "patent US20140017223A1", "about": "“Pharmaceutical Compositions Comprising A Pancreatic Enzyme Preparation With Viral Infectivity Reduced Below A Significant Level And Methods Of Preparing And Using The Same” (Aptalis Pharma Canada Inc., priority 2010, published 2014)", "key": {"PPV [1]": {"test_system": "PPV", "assay": "Kinetics of PPV inactivation in PEP samples with 0.4% BPL at 4° C. (Example 7)", "assay_type": "cell-based, porcine parvovirus (PPV)", "settings": "PEP conc. 100 mg/mL", "method": "Samples prepared in the same way as described in Example 1 were treated at 4° C. in an aqueous media (i.e. mixture of water and isopropyl alcohol)."}, "lipase": {"test_system": "lipase", "assay": "Lipase activity of pancrelipase after BPL treatment, freezing and lyophilization (USP 31 method)", "assay_type": "biochemical", "settings": "for Loss of Lipase Activity: pancrelipase, freezing, lyophilization, precision 5-10%", "method": "Enzymatic activity for the enzymes of a PEP (e.g., proteases, lipases, and amylases) can be determined, for example, by using the United States Pharmacopeia (USP) monographed methods (The United States Pharmacopeia and the National Formulary (USP 31/NF 26). 2008. Rockville (MD): United States Pharmacopeial Convention, Inc.).\nThe samples c-d from all the experiments were tested for lipase, protease, and amylase enzymatic activity using USP 31 monographed methods. See Example 11 and Table 11.\nTable 11 presents the lipase, protease, and amylase activity for aliquots of the pancrelipase after BPL treatment for 30 min at 25° C. followed by freezing and lyophilization (same treatment as for samples in Example 10)."}, "Endogenous PPV": {"test_system": "Endogenous PPV", "assay": "Inactivation of endogenous PPV of PEP by BPL, chloroform/PEG extraction method (Example 4)", "assay_type": "cell-based, porcine parvovirus (PPV)", "settings": "for Detected PPV Titer: 0*=below detection limit of 63 FFID50/g PEP", "method": "Pancrelipase powders from 2 different lots were each dissolved in 100 mM Tris, pH=8.3, at a concentration of 100 mg/ml. Two ml non-purified PPV viral stock (prepared using standard protocols (Arella et al., Physicichemical properties, production, and purification of parvoviruses. 1990, In Tijssen, P. (ed.), CRC handbook of parvoviruses. Boca Raton, Fla.: CRC Press, 11-30)) were added to 38 ml of the pancrelipase solution. The virus was mixed with the PEP using slow shaking at room temperature for one day. Aliquots were taken from the PPV-spiked pancrelipase stocks and each was incubated with different concentrations of BPL (available from Sigma-Aldrich, St. Louis, Mo.) (except the control) for 48 hours at room temperature (20° C.). The level of viral inactivation was measured by the titration of PPV infectivity using serial dilutions of 1,000 times or more since the titer of spiked virus was high. Determination of the FFID50 was performed using the fluorescence assay as described in the PPV FFID-infectivity assay of U.S. Patent Publication No. 2009/0226414.\nThe experiment described in Example 1 was repeated except no additional PPV was added. Like Example 3, the infectivity assay was performed after PEG/chloroform purification."}, "PPV [2]": {"test_system": "PPV", "assay": "Inactivation of PPV by BPL (30 min, 25° C.) measured from frozen and lyophilized samples (Example 10)", "assay_type": "cell-based, porcine parvovirus (PPV)", "method": "4.5 g pancrelipase (PEP) powder was dissolved in 44 ml ice cold 100 mM Tris (pH=8.3) by frequently mixing a 50-ml plastic tube that was kept on ice most of the time except when shaking. The dissolved sample was spiked with 1 ml (2×0.5 ml) PPV stock (prepared at the Institut National de la Recherche Scientifique, Québec, Canada using standard protocols (Arella et al., Physicichemical properties, production, and purification of parvoviruses. 1990, In Tijssen, P. (ed.), CRC handbook of parvoviruses. Boca Raton, Fla.: CRC Press, 11-30)) 10^7 FFID50/ml; see Example 8 and Table 8) and was mixed for another 10 minutes.\nThree aliquots of the dissolved pancrelipase were transferred into tubes (A-C) and kept on ice while (A) no BPL—the control), (B) (0.4 vol % BPL), or (C) (0.8 vol % BPL) was added to them. After a brief mixing by a vortex machine, the tubes were incubated for 30 minutes at 25° C. At the end of the incubation, the tubes were transferred on to ice and immediately four aliquots were transferred from each experimental condition into new tubes (a-d). These tubes were placed into the mixture of acetone/dry ice for fast freezing. Later, the samples were stored at −80° C.\nThe experiment above was repeated two more times (altogether: experiments 1-3).\nThe frozen samples were lyophilized at −45° C. for two days, and the pancrelipase powders were kept at 4-10° C. Samples a-b from all the experiments were dissolved in water. Infectivity measurements were done with diluted samples using the 400 times diluted samples as the lowest dilution step to determine the FFID50. To easily compare the results for the different experiments, all of the obtained infectivity data were converted to specific infectivity (FFID50/gram PEP). See Example 10 and Table 10.\nInactivation results for PEP samples containing PPV inactivated by BPL at 25° C. for 30 min which was subsequently inactivated by freezing followed by lyophilization are presented in Table 10."}, "PPV [3]": {"test_system": "PPV", "assay": "Inactivation of PPV by 0.8% (v/v) BPL at 4° C. (Example 6)", "assay_type": "cell-based, porcine parvovirus (PPV)", "settings": "0.8% BPL (4 h) at 4° C.", "method": "Samples prepared as in Example 1 were treated for four hours with 0.8% (v/v) BPL at 4° C."}, "[4]": {"settings": "PEP # 1, endogenous PPV 3.20 × 10^3, 0.10% (v/v) BPL"}, "[5]": {"settings": "PEP # 1, endogenous PPV 3.20 × 10^3, 0.25% (v/v) BPL"}, "[6]": {"settings": "PEP # 2, endogenous PPV 0.10 × 10^3, 0.04% (v/v) BPL"}, "[7]": {"settings": "PEP # 2, endogenous PPV 0.10 × 10^3, 0.10% (v/v) BPL"}, "[8]": {"settings": "PEP # 2, endogenous PPV 0.10 × 10^3, 0.25% (v/v) BPL"}, "[9]": {"settings": "PEP # 3, endogenous PPV 6.40 × 10^3, 0.10% (v/v) BPL"}, "[10]": {"settings": "PEP # 3, endogenous PPV 6.40 × 10^3, 0.25% (v/v) BPL"}, "[11]": {"settings": "PEP # 4, endogenous PPV 0.20 × 10^3, 0.04% (v/v) BPL"}, "[12]": {"settings": "PEP # 4, endogenous PPV 0.20 × 10^3, 0.10% (v/v) BPL"}, "[13]": {"settings": "PEP # 4, endogenous PPV 0.20 × 10^3, 0.25% (v/v) BPL"}}, "note": "Where “and” joins values, the source holds several entries; their conditions need not be identical. Equal entries are not always repeated.", "data": [{"smiles": "O=C1CCO1", "note": "[BPL, Beta-propiolactone]", "values": [{"measurement": "Average PPV titer (log reduction)", "setting": "PPV [1]; reaction time 15 min", "value": 1.1, "unit": "log"}, {"measurement": "Average PPV titer (log reduction)", "setting": "PPV [1]; reaction time 30 min", "value": 1.6, "unit": "log"}, {"measurement": "Average PPV titer (log reduction)", "setting": "PPV [1]; reaction time 45 min", "value": "2 log and 2.0 log"}, {"measurement": "Average PPV titer (log reduction)", "setting": "PPV [1]; reaction time 60 min", "value": 2.2, "unit": "log"}, {"measurement": "Average PPV titer (log reduction)", "setting": "PPV [1]; reaction time 720 min", "value": 4.8, "unit": "log"}, {"measurement": "Lipase activity maintained", "setting": "lipase; lyophilized samples treated with 0.4% BPL and 0.8% BPL", "value": "maintained the majority"}, {"measurement": "Loss of Lipase Activity", "setting": "lipase; 0.4% BPL 30 min 25° C.", "value": 19.79, "unit": "%"}, {"measurement": "Loss of Lipase Activity", "setting": "lipase; 0.8% BPL 30 min 25° C.", "value": 26.40, "unit": "%"}, {"measurement": "Detected PPV Titer", "setting": "Endogenous PPV; PEP # 1, endogenous PPV 3.20 × 10^3, 0.04% (v/v) BPL", "value": "0.50 × 10^2 FFID50/g"}, {"measurement": "PPV Titer reduction", "setting": "Endogenous PPV; [4]", "value": "10^3 FFID50/g"}, {"measurement": "Detected PPV Titer", "setting": "Endogenous PPV; [4]", "value": "< 0* FFID50/g"}, {"measurement": "PPV Titer reduction", "setting": "Endogenous PPV; [5]", "value": "10^3 FFID50/g"}, {"measurement": "Detected PPV Titer", "setting": "Endogenous PPV; [5]", "value": "< 0* FFID50/g"}, {"measurement": "PPV Titer reduction", "setting": "Endogenous PPV; [6]", "value": "10^3 FFID50/g"}, {"measurement": "Detected PPV Titer", "setting": "Endogenous PPV; [6]", "value": "< 0* FFID50/g"}, {"measurement": "PPV Titer reduction", "setting": "Endogenous PPV; [7]", "value": "10^3 FFID50/g"}, {"measurement": "Detected PPV Titer", "setting": "Endogenous PPV; [7]", "value": "< 0* FFID50/g"}, {"measurement": "PPV Titer reduction", "setting": "Endogenous PPV; [8]", "value": "10^3 FFID50/g"}, {"measurement": "Detected PPV Titer", "setting": "Endogenous PPV; [8]", "value": "< 0* FFID50/g"}, {"measurement": "Detected PPV Titer", "setting": "Endogenous PPV; PEP # 3, endogenous PPV 6.40 × 10^3, 0.04% (v/v) BPL", "value": "4.00 × 10^2 FFID50/g"}, {"measurement": "PPV Titer reduction", "setting": "Endogenous PPV; [9]", "value": "10^3 FFID50/g"}, {"measurement": "Detected PPV Titer", "setting": "Endogenous PPV; [9]", "value": "0.07 × 10^2 FFID50/g"}, {"measurement": "PPV Titer reduction", "setting": "Endogenous PPV; [10]", "value": "10^3 FFID50/g"}, {"measurement": "Detected PPV Titer", "setting": "Endogenous PPV; [10]", "value": "< 0* FFID50/g"}, {"measurement": "PPV Titer reduction", "setting": "Endogenous PPV; [11]", "value": "10^3 FFID50/g"}, {"measurement": "Detected PPV Titer", "setting": "Endogenous PPV; [11]", "value": "< 0* FFID50/g"}, {"measurement": "PPV Titer reduction", "setting": "Endogenous PPV; [12]", "value": "10^3 FFID50/g"}, {"measurement": "Detected PPV Titer", "setting": "Endogenous PPV; [12]", "value": "< 0* FFID50/g"}, {"measurement": "PPV Titer reduction", "setting": "Endogenous PPV; [13]", "value": "10^3 FFID50/g"}, {"measurement": "Detected PPV Titer", "setting": "Endogenous PPV; [13]", "value": "< 0* FFID50/g"}, {"measurement": "Reduction of PPV titer", "setting": "PPV [2]; 0.4% BPL", "value": "0.27 × 10^3 FFID50/g"}, {"measurement": "Reduction of PPV titer", "setting": "PPV [2]; 0.8% BPL", "value": "1.55 × 10^6 FFID50/g"}, {"measurement": "Average Results (per sample a/b)", "setting": "PPV [2]; 0.8% BPL, 0* means under detection limit", "value": "< 0* FFID50/g"}, {"measurement": "Average Results (per experiment)", "setting": "PPV [2]; 0.8% BPL, experiments C1-C3, 0* means under detection limit", "value": "< 0* FFID50/g"}, {"measurement": "PPV infectivity (single determinations)", "setting": "PPV [2]; 0.8% BPL, samples C1a-C3b, 0* means under detection limit", "value": "< 0* FFID50/g"}, {"measurement": "Log Reduction", "setting": "PPV [3]; media Mixture water + IPA", "value": 4.9, "unit": "Log"}, {"measurement": "Sample infectivity after treatment with BPL", "setting": "PPV [3]; media Mixture water + IPA", "value": 5.2, "unit": "FFID50/g log"}, {"measurement": "Log Reduction", "setting": "PPV [3]; media Water", "value": 5.2, "unit": "Log"}, {"measurement": "Sample infectivity after treatment with BPL", "setting": "PPV [3]; media Water", "value": 5.0, "unit": "FFID50/g log"}]}]}
